Test system: HLCM-HHs
Assay type: cell-based, human
Details: 7 days
Procedure: As described in our previous publication (Tateno 2015), humanized liver chimeric mice (HLCM) were generated through xenotransplantation of cryopreserved or freshly isolated primary human hepatocytes (Lot:JFC, BioIVT, NY, US) into severe […] immune deficient (SCID) mice carrying a albumin enhancer/promoter-driven transgene (cDNA), urokinase type plasminogen activator, namely cDNA-uPA Tg/SCID). HLCM with blood human albumin level higher than 10 mg/mL were used for human hepatocyte isolation with two-step collagenase perfusion. The freshly isolated HLCM derived human hepatocytes (HLCM-HH) were plated on type I collagen coated culture dishes (BioCoat, Corning, NY, USA) at 1.05×10^5 cells/cm^2. […]
Total RNA was extracted with Zymo-Quick RNA micro kit (Zymo Research, CA, USA) according to the provider's protocol. […] Real-time quantitative PCR was performed with PowerUp SYBR Green Master Mix (ThermoFisher Scientific, MA, USA) and QuantStudio 5 systems (ThermoFisher Scientific) using human specific primer sets summarized in the Table 4. Relative gene expression levels were analyzed with the Delta-Dleta Ct method.

Fibrinogen
expression of cholangiocyte/liver progenitor cell markers, TGFB2 and ANKRD1 (INVITROGRO HI (IH) and HCM media with or without fibrinogen 50 μg/mL): significantly inhibited | expressions of cholangiocyte/liver progenitor cell markers (TGFB1, TGFB2, ANKRD1, KRT19) (supplemented to fresh dHCGM at 50 μg/mL, vs dHCGM alone, qPCR): significantly inhibited

— patent US20260242739A1, “ROLE OF HEPATOCYTE-DERIVED EXTRACELLULAR MATRIX AND COAGULATION FACTORS FOR THE FATE RESTORATION AND MAINTENANCE OF HUMAN HEPATOCYTES” (UNIVERSITY OF SOUTHERN CALIFORNIA, priority 2023, published 2026)
